From patent US9527837B2, “Inhibitors of EZH2” (Eli Lilly and Company, priority 2014, dated 2016)

Columns and labels:
[1] = test system: tri-methylated H3K27 in MDA MB-231 (EZH2 WT) cells; experiment: H3K27Me3 cell-based ELISA, MDA MB-231; settings: Homo sapiens, 48 hours
Protocol: (§1) The purpose of this assay is to evaluate the ability of a compound to inhibit the functional activity of EZH2 in cells, via measurement of levels of cell tri-methylated H3K27. Plate MDA MB-231 (EZH2 WT) or Karpas-422 (EZH2 Y641N) cells at 3500/100 μL/well (for MDA MB-231) or 5,000 cells/100 μL/well (for Karpas-422) in black 96-well BD BioCoat Cellware, Poly-Lysine plates (BD Biosciences, Cat#354640). Prepare compound plates in a Nunc™ 96-Well Polypropylene MicroWell Plate (Thermo Scientific Cat# #249944) with the addition of 40 μL/well of 10 mM compound (representing starting final concentration of 20 μM) or 40 μL DMSO, then prepare serial dilutions through the transfer of 20 μL from one well to the next. Add 5 μL of test compound to 245 μL/well of growth media in a separate Nunc™ 96-Well Polypropylene MicroWell Plate, and stamp 11 μL of the compound/media mix onto the cell plates. Place cell plates in a 37° C. incubator for 48 hours. Remove plates from the incubator, place the plates at room temperature for 15-20 minutes, and spin down the plates at 1000 rpm for 5 minutes. Fix cells with 30 μL 16% paraformaldehyde for 15 minutes at room temperature. Remove the paraformaldehyde and permeabilize cells with 100 μL/well PBS minus calcium or magnesium (−/−) containing 0.1% TRITON® X-100 for 20 minutes at room temperature. […]

[2] = test system: tri-methylated H3K27 in Karpas-422 (EZH2 Y641N) cells; experiment: H3K27Me3 cell-based ELISA, Karpas-422; settings: Homo sapiens, 48 hours
Protocol: as §1

Karpas-422 cells = experiment: Karpas-422 proliferation assay; assay type: cell-based; settings: Homo sapiens, KARPAS-422, 168 h; 7 days, Cell Titer GLO
Protocol: Plate Karpas-422 cells at a density of 5000 cells/100 μL/well in 96 well, black 96-well BD BioCoat Cellware, Poly-Lysine plates (BD Biosciences, Cat#354640). 40 μL of 10 mM test compound (representing starting final concentration of 20 μM) or add 100% DMSO to a Nunc 96-Well Polypropylene MicroWell Plate (Thermo Scientific Cat# #249944). Perform serial dilutions through the transfer of 20 μL from one well to the next. Add 5 μL of compound to a 245 μL/well of growth media in a separate Nunc 96-Well Polypropylene MicroWell Plate, and stamp 11 μL of the compound/media mix onto the cell plates. Incubate cell plates at 37° C. for 7 days. Add 100 μL/well of Cell Titer GLO® reagent (Promega, Cat# G7671) to the cell plates. Shake 2 minutes and measure luminescence using a plate reader.

[3] = test system: tumor tri-methylated H3K27 (Karpas-422 xenograft); experiment: ELISA-based measurement of tumor-derived tri-methylated H3K27, Karpas-422 xenograft; assay type: in vivo; settings: mice, 50 mpk BID oral gavage, day 7, p<0.0001
Protocol: (§2) The purpose of this assay is to evaluate the ability of a test compound to inhibit tumor EZH2 function and EZH2-mediated tumor growth in vivo.
To acid-extract histones from tumors, place tumor sections of approximately 0.5 cm by 0.25 cm or 20-30 mg in weight in Lysing Matrix D 500×2 mL Add RNASE/DNASE-free tubes with beads for homogenization (MP Biomedicals, Cat#6913-500). Add 650 μL of Acid Lysis Buffer (0.4 N HCl containing Protease Inhibitor Cocktail Tablets (Roche; Cat#11836153001)). Homogenize tumor samples 2-3 times at speed 6 m/second for 20 seconds in a FastPrep FP120 homogenizer. Set samples on ice for 1 hour to separate. Transfer supernatants to an eppendorf tube and place on a tube rotator to lyse overnight at 4° C. Spin samples down at 8000 rpm for 10 minutes at 4° C. Transfer supernatants to a new tube and measure for protein concentration.
Add 150 μL/well of MSD Blocking Solution A (Meso Scale Discovery (MSD); final concentration of 3%) to a MULTI-SPOT® Tri-Methyl-Histone H3(K27) Singleplex plate (MSD; Cat#: N45CA-1). Shake at room temperature for 1 hour. Wash the plate with 1×MSD Tris Wash Buffer™ (MSD), (3×). Dispense 0.25 μg of tumor lysate in 25 μL Acid Lysis Buffer per well in triplicate. Shake overnight at 4° C. […] Add 150 μL/well 1×MSD® Read Buffer and measure chemoelectroluminescence using a MSD SECTOR® Imager 6000 instrument.

[4] = test system: tumor TNFRSF21 gene expression (Karpas-422 xenograft); experiment: qPCR-based measurement of tumor-derived TNFRSF21 mRNA expression, Karpas-422 xenograft; assay type: in vivo, mice; settings: 50 mpk BID oral gavage, day 7, normalized to GAPDH, p<0.0001
Protocol: as §2
To isolate RNA from tumor tissue, place tumor sections of approximately 0.5 cm by 0.25 cm or 20-30 mg in weight in Lysing Matrix D 500×2 mL Add RNASE/DNASE-free tubes with beads for homogenization (MP Biomedicals, REF: 6913-500). Add 650 μL of RLT buffer from RNeasy® Kit (Qiagen; Cat#74104). Homogenize samples 2 to 3 times at speed 6 for 20 seconds in the FastPrep FP120 homogenizer. Set samples on ice to cool for 10 minutes. Centrifuge at 13 000 rpm for 10 minutes at 4° C. Place supernatants into a QIA tube and isolate RNA using the RNeasy® Kit (Qiagen; Cat#74104).
Prepare cDNA from 3 μg of tumor RNA using the High Capacity cDNA Reverse Transcription Kit (Applied Biosystems; Cat#4368813) and incubate samples in a PCR Thermocycler using the following cycle conditions: 10 minutes at 25° C.; 2 hours at 37° C., hold at 4° C. Amplify cDNA product using Thermo Scientific ABsolute Blue QPCR ROX Mix (Applied Biosystems; Cat# AB-4139) and Taqman probes for TNFRSF21 (Applied Biosystems; Cat# Hs01560899_m1) and housekeeping gene GAPDH (Applied Biosystems; Cat# Hs02758991-g1) in the Applied Biosystems ViiA 7™ Real-Time PCR cycler. Calculate TNFRSF21 cycle threshold values and normalize to its respective sample's GAPDH levels. […]

IC50 [1] | IC50 [2] | IC50 (Karpas-422 cells) | Structure (SMILES) | inhibition of tumor methylation [3] | increase in tumor TNFRSF21 gene expression [4]
1.88 ± 0.66 nM | 3.79 ± 1.02 nM | 49.7 ± 33.9 nM | COC1CN([C@H]2CC[C@H]([C@@H](C)c3scc(C(=O)NCc4c(C)cc(C)[nH]c4=O)c3C)CC2)C1 [Example 1, N-[(4,6-Dimethyl-2-oxo-1,2-dihydropyridin-3-yl)methyl]-5-{(1R)-1-[trans-4-(3-methoxyazetidin-1-yl)cyclohexyl]ethyl}-4-methylthiophene-3-carboxamide] | 53% | 25 fold
9.02 ± 2.69 nM | 144 ± 232 nM | 526 nM | COC1CN([C@H]2CC[C@H]([C@H](C)c3scc(C(=O)NCc4c(C)cc(C)[nH]c4=O)c3C)CC2)C1 [Example 2, N-[(4,6-Dimethyl-2-oxo-1,2-dihydropyridin-3-yl)methyl]-5-{(1S)-1-[trans-4-(3-methoxyazetin-1-yl)cyclohexyl]ethyl}-4-methylthiophene-3-carboxamide] |  | 
